The values below come from ChEMBL document CHEMBL1641603, “Inhibition of β-carbonic anhydrases with ureido-substituted benzenesulfonamides” (Bioorg Med Chem Lett, 2011).

The assay addresses T1, PROBABLE TRANSMEMBRANE CARBONIC ANHYDRASE (CARBONATE DEHYDRATASE) (CARBONIC DEHYDRATASE) (Mycobacterium tuberculosis, UniProt P96878).
T1 sequence (P96878 whole entry): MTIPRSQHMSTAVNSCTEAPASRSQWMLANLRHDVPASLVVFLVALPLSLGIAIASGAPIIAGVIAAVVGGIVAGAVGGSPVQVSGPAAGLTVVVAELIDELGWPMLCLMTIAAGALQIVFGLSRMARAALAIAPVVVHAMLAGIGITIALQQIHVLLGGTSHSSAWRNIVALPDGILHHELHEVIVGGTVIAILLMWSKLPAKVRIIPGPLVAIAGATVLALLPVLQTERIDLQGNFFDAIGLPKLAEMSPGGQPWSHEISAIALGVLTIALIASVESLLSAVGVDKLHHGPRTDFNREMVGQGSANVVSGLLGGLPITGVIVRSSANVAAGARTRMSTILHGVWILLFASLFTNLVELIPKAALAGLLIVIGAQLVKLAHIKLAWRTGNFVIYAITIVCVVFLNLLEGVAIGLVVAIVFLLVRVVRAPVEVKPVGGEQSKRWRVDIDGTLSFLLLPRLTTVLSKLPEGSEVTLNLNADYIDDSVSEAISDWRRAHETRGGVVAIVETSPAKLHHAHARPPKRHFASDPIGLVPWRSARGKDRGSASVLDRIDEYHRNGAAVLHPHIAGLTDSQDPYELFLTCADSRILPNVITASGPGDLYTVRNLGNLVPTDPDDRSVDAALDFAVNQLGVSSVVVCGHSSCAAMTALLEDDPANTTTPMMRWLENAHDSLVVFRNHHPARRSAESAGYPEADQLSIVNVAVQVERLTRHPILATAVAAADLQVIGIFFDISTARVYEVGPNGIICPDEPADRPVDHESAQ

In turn, `Nc1ccc(S(N)(=O)=O)cc1` [SULFANILAMIDE] gave a Ki of 6.24 µM.

As a reminder, the Ki is a measure of affinity in units of concentration, obtained from inhibition or displacement.
